Assay results reported in patent US9839632B2, “Methods and compositions using 4-amino-2-(2,6-dioxo-piperidine-3-yl)-isoindoline-1,3-dione for treatment and management of central nervous system cancers” (CELGENE CORPORATION, priority 2013, dated 2017).

Key:
[1] = test system: macrophages and NK cells in the CNS lymphoma microenvironment; experiment: Immunohistochemistry/immunofluorescence of CNS lymphoma microenvironment, OCI-LY10 model; format: in vivo, athymic mice; conditions: P<0.05 vs control
Source text: Immunohistochemistry (“IHC”) assessment for macrophages: Paraffin sections (10 μm thick) were fixed, blocked, and immunostained with the appropriate antibody: Iba-1 (BD Biosciences) for macrophages, Ym1 (Stemcell Technologies) as a marker for M2 polarization, iNOS (Calbiochem) as a marker for M1 polarization. Aperio ScanScope XT slide scanner and image analysis system (Aperio Spectrum, Vista, Calif.) were used for quantitative assessment of macrophages. Three equal-size (0.4 mM2) fields in macrophage-dense areas were selected in the contralateral brain and the tumor for counting. Data were shown as an average of the three fields.
Immunofluorescence for natural killer cells: Frozen sections (10 μm thick) were permeabilized with PBS-0.2% Triton X-100 for 5 min. After blocking with PBS-5% goat serum-0.02% Triton X-100 for 45 mins at 37° C., the sections were incubated overnight at 4° C. with Rat monoclonal CD335 antibody (a marker for NK cells, 1:200, Biolegend). After washing, sections were incubated with the Alexa Fluor 594 Goat anti-Rat IgG secondary antibody (1:1000, Life Technologies) at 37° C. for 1.5 h. Finally, Vectashield H-1200 mounting medium with DAPI (Vector Laboratories) was used to stain the nuclei. Images were obtained on a Zeiss LSM 510 META confocal microscope. Six equal-size (0.2 mM^2) fields in NK-dense areas were selected in the tumor for taking pictures. Fluorescence intensity data were generated by Zeiss LSM 510 and shown as an average of six fields.
Statistical analysis: One-way ANOVA was used to compare the difference between the groups at each time point. Two-way repeated measures ANOVA was used to analyze the interaction between the time and treatment. Survival analysis was performed by Kaplan Meier method. Kaplan Meier survival curves were generated using Prism4 software and the statistical difference between curves was derived with a log-rank test. P<0.05 was considered significant.

[2] = test system: primary murine microglia cells; experiment: Polarization of IL4-treated primary murine microglia cells (immunofluorescence); format: cell-based; conditions: IL-4 20 ng/ml 48 hours then 10 ug/ml 48 hours
Experimental: Treatments: In experiments in which IL-4 was used to induce M2 polarization of macrophages, cells were treated with IL-4 (20 ng/ml) for 48 hours followed by treatment with 4-amino-2-(2,6-dioxo-piperidine-3-yl)-isoindoline-1,3-dione (10 ug/ml) or DMSO control for 48 hours. In triple cell culture experiments with lymphoma cells, macrophages, and NK cells, the treatment was with either DMSO or 4-amino-2-(2,6-dioxo-piperidine-3-yl)-isoindoline-1,3-dione (10 ug/ml) for 48 hours.
Immunofluorescence for analysis of macrophage polarization in cell culture experiments: Live cells were fixed in 10% formalin for 30 minutes at room temperature followed by permeabilization with PBS-0.2% Triton X-100 for 2 min. After blocking with PBS-5% goat serum-0.02% Triton X-100 for 30 minutes at 37° C., the cells were incubated overnight at 4° C. with rat monoclonal F4/80 antibody (for primary microglia cells, 1:200 Abcam), rat monoclonal CD11b (for U937, 1:200 Biolegend), rabbit polyclonal Ym1 antibody (for primary microglia cells and primary peritoneal macrophages, 1:200, Stemcell Technologies, Vancouver, Canada), rabbit polyclonal FXIII A antibody (for U937, 1:200, Abcam), mouse monoclonal p-STAT1 antibody (1:200, Abcam), rabbit polyclonal p-STAT6 antibody (1:200, Abcam) or rabbit iNOS antibody (1:200, Calbiochem). […]

[3] = test system: primary murine microglia cells; experiment: Phagocytosis assay, primary murine microglia cells; format: cell-based; conditions: 3 or 10 ug/ml, 48 hours, P<0.05 vs control
Experimental: Phagocytosis assay: The impact of 4-amino-2-(2,6-dioxo-piperidine-3-yl)-isoindoline-1,3-dione on the phagocytic activity of macrophages was assessed in primary microglial cells and human monocyte cells (U937). The cells were cultured in complete medium for 4 days. They were then harvested and resuspended in Opti-MEM medium at 10^6 cells/ml and seeded in a 96 well plate at 100,000 viable cells/well. The experimental wells were treated with 4-amino-2-(2,6-dioxo-piperidine-3-yl)-isoindoline-1,3-dione 3 or 10 ug/ml. After 48 hours of treatment, the culture medium was quickly replaced with 100 ul of pHrodo BioParticles suspension (Life technologies and the cells were incubated in the suspension at 37° C. for 2-3 hours. Following incubation, the plates were scanned at 550 nm/600 nm (excitation/emission) using fluorescence plate reader. The fluorescence activity reflects the phagocytic activity of the macrophages. The impact of 4-amino-2-(2,6-dioxo-piperidine-3-yl)-isoindoline-1,3-dione treatment (% effect) was calculated as a fraction of the phagocytic activity in the positive control wells. Wan, C. P.; et al., J. Immunol. Methods, 1993, 162, pp. 1-7.

[4] = listed as 4-amino-2-(2,6-dioxo-piperidine-3-yl)-isoindoline-1,3-dione

In the case of Nc1cccc2c1C(=O)N(C1CCC(=O)NC1=O)C2=O (stereo not drawn) [Pomalidomide, 4-amino-2-(2,6-dioxo-piperidine-3-yl)-isoindoline-1,3-dione], the “CD335 positive NK cells in CNS tumors” value [1] is reported as “significantly increased”, the “Ym1 expression (M2-polarized macrophages) in tumor” value [1] is reported as “significantly decreased” and the “iNOS activity (M1-polarized macrophages) in tumor” value [1] is reported as “increased”. For the same compound, the “CD335 positive NK cells in CNS tumors” value [1, 4] was “significant increase”, the “Ym1 expression (M2-polarized macrophages) in tumor” value [1, 4] was “significant decrease” and the “iNOS activity (M1-polarized macrophages) in tumor” value [1, 4] was “significant increase”. The “brain macrophages (Iba-1 positive cells)” value ([1]; contralateral brain and tumor) was “significantly increased”, the “polarization status (FXIII A, pSTAT6 vs iNOS, pSTAT1 expression)” value [2] was “from M2 to M1” and the phagocytic activity [3] was “significantly increased”.
